Data reported in patent publication US9326539B2, “Compositions comprising dietary fat complexers and methods for their use” (Soho Flordis International Pty. Ltd., priority 2002, dated 2016).

Experiments:
[1] = cited from earlier work
[2] = volunteers fed high fat breakfast: serum triglyceride levels; assay type: in vivo, human
Experimental: To determine the effect of α-cyclodextrin on triglyceride levels, eight volunteers were fed on two consecutive days a two-egg cheese (54 g) omelet and a milkshake containing a total of 47 g of fat after an overnight fast. On the first day the meal also contained approximately 5 g of α-cyclodextrin. Blood samples (10 ml) from each volunteer taken via an in-dwelling venous catheter immediately prior the meal (zero-time) and at 1, 2 and 3 hours after the meal was consumed and were assayed for serum triglyceride levels. The zero-time sample were used as the baseline to calculate the percentage change in blood serum triglyceride levels of the human volunteers at one, two and three hours. FIG. 7 illustrates the data collected from the volunteers.
FIG. 7 also contains data from three of the volunteers who had partaken in an earlier two-hour study with a smaller meal (denoted “*”).

[3] = dog with chronic diarrhea fed α-cyclodextrin with dry food; assay type: in vivo; settings: 2.5 g α-cyclodextrin with two cups dry food twice a day for two and one-half weeks, α-cyclodextrin:fat about 1:9
Experimental: An eighteen month old, neutered male dog of unknown parentage having chronic diarrhea was de-wormed twice and placed on hypoallergenic food in an effort to control the diarrhea. However, the chronic diarrhea was not alleviated and the dog stopped eating for a day or two on two or three separate occasions.
The dog was then treated with α-cyclodextrin as follows: The dog was placed on a diet comprising a teaspoon (2.5 g) of α-cyclodextrin mixed with two cups dry food twice a day for two and one-half weeks. Based on the fat content in the food, the ratio of α-cyclodextrin to fat was about 1:9. The dog's chronic diarrhea was eliminated during this period except for an acute episode of loose stools after a day of swimming in a river but the stool has been formed ever since.
The dog very quickly lost his appetite, self restricted his food intake by about one-half and began eating grass, grass helps to bind his stool. The diarrhea returned.

insulin and leptin = test: two additional volunteers: body weight, insulin and leptin levels (radioimmune assays); assay type: in vivo, human
Excerpt: Blood samples were taken from the two additional subjects in Example 3 at various timepoints and assayed for insulin levels and leptin levels by the method of Linco Research (St. Charles, Mo.) using human insulin and leptin radioimmune assays.

[4] = human volunteer on high fat diet with α-cyclodextrin: weight loss and blood parameters; assay type: in vivo; settings: one volunteer; for HDL cholesterol: baseline 0.97; for Triglycerides: baseline 2.76; for Insulin Resistance: baseline 2.85; for Cholesterol: baseline 4.76
Experimental: The α-cyclodextrin was added to the subject's diet in a proportion of one gram Of α-cyclodextrin for every nine grams of fat that were estimated to be consumed by the subject. […] 200 days, approximately 6 months— By 6 months the subject's body weight was reduced by 32 pounds. In addition to the weight loss, within the first two weeks of the study, the subject's elevated blood pressure fell to the point where they were forced to reduce their prescribed beta-blacker by one-third. Their blood triglycerides were also assayed during this time and their blood serum triglyceride levels were decreased by 23% within the first month and 46% by the end of six months.

[5] = Wistar rat feeding study: fecal fat content (total lipid of feces); assay type: in vivo, Wistar rats; settings: collected feces, final three days
Excerpt: The rats were housed as pairs for five weeks prior to being placed in individual metabolic cages for the sixth week of the study. All of the rats' feces were collected during the final three days of the study. At the end of the sixth week of the study period the rats were sacrificed by decapitation after a brief exposure to carbon dioxide gas. Trunk blood and the livers were collected from each animal. The rest of the body was eviscerated and all visible fat from the internal cavity was collected and weighed. The carcass was frozen for body composition analysis at a later date.
Total lipid determinations were performed on the collected feces using standard techniques Folch et al. J Biol. Chem 226: 497-509 (1957) incorporated by reference. […] On average this increase was approximately 25%. […] The latter observation was confirmed by visual inspection of the feces.

SMILES: OC[C@H]1O[C@@H]2O[C@H]3[C@H](O)[C@@H](O)[C@@H](O[C@H]4[C@H](O)[C@@H](O)[C@@H](O[C@H]5[C@H](O)[C@@H](O)[C@@H](O[C@H]6[C@H](O)[C@@H](O)[C@@H](O[C@H]7[C@H](O)[C@@H](O)[C@@H](O[C@H]1[C@H](O)[C@H]2O)O[C@@H]7CO)O[C@@H]6CO)O[C@@H]5CO)O[C@@H]4CO)O[C@@H]3CO [α-cyclodextrin]
- weight gain of rats versus control diet ([1]; JP 05-298849, diet with 16% a-cyclodextrin, or 1% linolenic acid, or 14% α-cyclodextrin and 2% linolenic acid): gain weight approximately the same as rats fed a control diet
- body weight gain of rats versus control diets ([1]; Kaewprasert et al. 2001, 5% α-cyclodextrin diet, cyclodextrin:fat about 1:1.4): not significantly different
- weight gain of rats ([1]; S60-149752, diet with 14% w/w α-cyclodextrin, or 14% w/w α-cyclodextrin and 0.5% w/w linolenic acid): little effect on weight gain
- increase in serum triglyceride levels after meal ([2]; eight volunteers, meal with 47 g fat and approximately 5 g α-cyclodextrin, 1, 2 and 3 hours, p<0.08): less
- change in triglyceride levels after meal ([2]; three volunteers, earlier two-hour study with smaller meal): less
- chronic diarrhea [3]: eliminated
- Leptin (insulin and leptin; Subject 1, 55 days on diet, day 0: 3.6): 2.9 ng/mL
- Insulin (insulin and leptin; Subject 1, 55 days on diet, day 0: 14): 13 uU/ml
- Body weight (insulin and leptin; Subject 1, 55 days on diet, day 0: 89.09): 85.45 kg
- Body weight (insulin and leptin; Subject 1, 55 days on diet, day 0: 196): 188 lb
- Leptin (insulin and leptin; Subject 1, 112 days on diet, day 0: 3.6): 1.6 ng/mL
- Insulin (insulin and leptin; Subject 1, 112 days on diet, day 0: 14): 8 uU/ml
- Body weight (insulin and leptin; Subject 1, 112 days on diet, day 0: 89.09): 81.82 kg
- Body weight (insulin and leptin; Subject 1, 112 days on diet, day 0: 196): 180 lb
- Body weight % decrease (insulin and leptin; Subject 1, day 0 to day 112): 5.0%
- Insulin % decrease (insulin and leptin; Subject 1, day 0 to day 112): 42.9%
- Leptin % decrease (insulin and leptin; Subject 1, day 0 to day 112): 55.6%
- Leptin (insulin and leptin; Subject 2, 28 days on diet, day 0: 6.1): 6.0 ng/mL
- Insulin (insulin and leptin; Subject 2, 28 days on diet, day 0: 26): 28 uU/ml
- Body weight (insulin and leptin; Subject 2, 28 days on diet, day 0: 105.45): 104.55 kg
- Body weight (insulin and leptin; Subject 2, 28 days on diet, day 0: 232): 230 lb
- Leptin (insulin and leptin; Subject 2, 62 days on diet, day 0: 6.1): 3.9 ng/mL
- Insulin (insulin and leptin; Subject 2, 62 days on diet, day 0: 26): 16 uU/ml
- Body weight (insulin and leptin; Subject 2, 62 days on diet, day 0: 105.45): 100.23 kg
- Body weight (insulin and leptin; Subject 2, 62 days on diet, day 0: 232): 220.5 lb
- Body weight % decrease (insulin and leptin; Subject 2, day 0 to day 62): 5.0%
- Insulin % decrease (insulin and leptin; Subject 2, day 0 to day 62): 38.5%
- Leptin % decrease (insulin and leptin; Subject 2, day 0 to day 62): 36%
- body weight reduction ([4]; initial weight 267 pounds, 1 g α-cyclodextrin per 9 g fat, by 6 months): 32 pounds
- Body Mass Index ([4]; 1 month): 39.17
- Hip ([4]; 1 month): 127 cm
- Waist ([4]; 1 month): 124 cm
- HDL cholesterol ([4]; 1 month): 1.00 mmol/L
- Triglycerides ([4]; 1 month): 2.13 mmol/L
- Insulin Resistance ([4]; 1 month): 2.13
- Cholesterol ([4]; 1 month): 4.76 mmol/L
- Body Mass Index ([4]; 6 months): 37.27
- Hip ([4]; 6 months): 117 cm
- Waist ([4]; 6 months): 117 cm
- HDL cholesterol ([4]; 6 months): 1.11 mmol/L
- Triglycerides ([4]; 6 months): 1.50 mmol/L
- Insulin Resistance ([4]; 6 months): 1.35
- Cholesterol ([4]; 6 months): 4.0 mmol/L
- decrease of blood serum triglyceride levels ([4]; by the end of six months): 46%
- decrease of blood serum triglyceride levels ([4]; within the first month): 23%
- elevated blood pressure ([4]; within the first two weeks): fell
- visual inspection of feces [5]: no indication of diarrhea
